Where two headings read alike, the source gives them in different places.
Columns and labels:
human SCN9A (Nav 1.7) = human SCN9A (Nav 1.7) (Homo sapiens, UniProt Q15858); assay: Measurement of Na ion current (Nav 1.7) by automated patch clamp assay in cells stably-expressing human SCN9A; assay type: cell-based; conditions: read-out: Inhibitory rate (%) of Na ion current
Protocol: Measurement of Na Ion Current in Voltage-Dependent Na Channel Gene Expressed Cell Nav 1.7 current was measured by automated patch clamp assay using cells stably-expressing human SCN9A. Cells Stably-expressing Human SCN9A Tetracycline-induced cells stably-expressing SCN9A were obtained from ChanTest Corporation. […] Next day, the Na ion current was measured by automated patch clamp assay. Electrophysiologic Measurement of Na Ion Current The Na ion current was measured by automated patch clamp assay using the following extracellular solution and intracellular solution. […] The control of the stimulating pulse and the data acquisition were carried out using EPC10 amplifier and Patch Master Software (HEKA). Data were sampled at 10 kHz, and low-pass filtered at 3 kHz. All the measurements were carried out at room temperature. […] The inhibitory rate of the Na ion current by the test compounds was calculated according to the following calculating formula with the peak current value generated by the depolarizing pulse. […] The inhibitory rate of Na ion current by each Example Compound was evaluated.

[1] = tested on: rats streptozotocin (STZ)-induced diabetic peripheral neuropathy model; assay: Evaluation of analgesic effect (von Frey test) in streptozotocin-induced diabetic peripheral neuropathy model; assay type: in vivo, rat; conditions: male Wistar rats, 3 mg/kg of body weight, orally, one hour before measuring
Protocol: Test (2) Evaluation of Analgesic Effect in Streptozotocin-Induced Diabetic Peripheral Neuropathy Models
Using some typical compounds among the compounds of the present invention, the inhibitory effect for neuropathic pain was determined through the evaluation of analgesic effect in rats streptozotocin (STZ)-induced diabetic peripheral neuropathy model.
The disease animal model was prepared by means of a partially-modified method of Fox et al. (Pain 81, 307-316, 1999). STZ was intraperitoneally administered to 9-week old male Wistar rats in 45 mg/kg of body weight to prepare animal model suffering from diabetic peripheral neuropathy. The analgesic effect was evaluated by von Frey test. Specifically, mechanical sensitivity was measured by applying hairs (von Frey hair) to the plantar surface of the animal's hind paw, and then the reaction thresholds (50% paw withdrawal thresholds) for the mechanical stimulation was determined by using a formula based on Chaplan et al. (Journal of Neuroscience Methods 53, 55-63, 1994).
One and two days before evaluating the test compounds, the reaction thresholds were measured to obtain an average thereof, and the average value was used as a reference value obtained before the test compounds would be administered.
In order to reduce the variations of the averaged values among the test groups and the measured values in each group, the animals were divided into 4 to 5 groups.
In the evaluation test of the test compounds, the reaction thresholds were measured after administering each test compound. One hour before measuring the reaction thresholds, each test compound was administered in 3 mg/kg of body weight. The strength of analgesic effect of each test compound is expressed as the extension width (g) of reaction thresholds which is obtained by the calculation formula of (reaction threshold obtained after administering test compound)−(reaction threshold obtained before administering test compound).

[2] = compound concentration 10 μmol/L, holding potential inactivating 50% Nav 1.7 channel (around −60 mV)

Sequence of human SCN9A (Nav 1.7) (Q15858 whole entry): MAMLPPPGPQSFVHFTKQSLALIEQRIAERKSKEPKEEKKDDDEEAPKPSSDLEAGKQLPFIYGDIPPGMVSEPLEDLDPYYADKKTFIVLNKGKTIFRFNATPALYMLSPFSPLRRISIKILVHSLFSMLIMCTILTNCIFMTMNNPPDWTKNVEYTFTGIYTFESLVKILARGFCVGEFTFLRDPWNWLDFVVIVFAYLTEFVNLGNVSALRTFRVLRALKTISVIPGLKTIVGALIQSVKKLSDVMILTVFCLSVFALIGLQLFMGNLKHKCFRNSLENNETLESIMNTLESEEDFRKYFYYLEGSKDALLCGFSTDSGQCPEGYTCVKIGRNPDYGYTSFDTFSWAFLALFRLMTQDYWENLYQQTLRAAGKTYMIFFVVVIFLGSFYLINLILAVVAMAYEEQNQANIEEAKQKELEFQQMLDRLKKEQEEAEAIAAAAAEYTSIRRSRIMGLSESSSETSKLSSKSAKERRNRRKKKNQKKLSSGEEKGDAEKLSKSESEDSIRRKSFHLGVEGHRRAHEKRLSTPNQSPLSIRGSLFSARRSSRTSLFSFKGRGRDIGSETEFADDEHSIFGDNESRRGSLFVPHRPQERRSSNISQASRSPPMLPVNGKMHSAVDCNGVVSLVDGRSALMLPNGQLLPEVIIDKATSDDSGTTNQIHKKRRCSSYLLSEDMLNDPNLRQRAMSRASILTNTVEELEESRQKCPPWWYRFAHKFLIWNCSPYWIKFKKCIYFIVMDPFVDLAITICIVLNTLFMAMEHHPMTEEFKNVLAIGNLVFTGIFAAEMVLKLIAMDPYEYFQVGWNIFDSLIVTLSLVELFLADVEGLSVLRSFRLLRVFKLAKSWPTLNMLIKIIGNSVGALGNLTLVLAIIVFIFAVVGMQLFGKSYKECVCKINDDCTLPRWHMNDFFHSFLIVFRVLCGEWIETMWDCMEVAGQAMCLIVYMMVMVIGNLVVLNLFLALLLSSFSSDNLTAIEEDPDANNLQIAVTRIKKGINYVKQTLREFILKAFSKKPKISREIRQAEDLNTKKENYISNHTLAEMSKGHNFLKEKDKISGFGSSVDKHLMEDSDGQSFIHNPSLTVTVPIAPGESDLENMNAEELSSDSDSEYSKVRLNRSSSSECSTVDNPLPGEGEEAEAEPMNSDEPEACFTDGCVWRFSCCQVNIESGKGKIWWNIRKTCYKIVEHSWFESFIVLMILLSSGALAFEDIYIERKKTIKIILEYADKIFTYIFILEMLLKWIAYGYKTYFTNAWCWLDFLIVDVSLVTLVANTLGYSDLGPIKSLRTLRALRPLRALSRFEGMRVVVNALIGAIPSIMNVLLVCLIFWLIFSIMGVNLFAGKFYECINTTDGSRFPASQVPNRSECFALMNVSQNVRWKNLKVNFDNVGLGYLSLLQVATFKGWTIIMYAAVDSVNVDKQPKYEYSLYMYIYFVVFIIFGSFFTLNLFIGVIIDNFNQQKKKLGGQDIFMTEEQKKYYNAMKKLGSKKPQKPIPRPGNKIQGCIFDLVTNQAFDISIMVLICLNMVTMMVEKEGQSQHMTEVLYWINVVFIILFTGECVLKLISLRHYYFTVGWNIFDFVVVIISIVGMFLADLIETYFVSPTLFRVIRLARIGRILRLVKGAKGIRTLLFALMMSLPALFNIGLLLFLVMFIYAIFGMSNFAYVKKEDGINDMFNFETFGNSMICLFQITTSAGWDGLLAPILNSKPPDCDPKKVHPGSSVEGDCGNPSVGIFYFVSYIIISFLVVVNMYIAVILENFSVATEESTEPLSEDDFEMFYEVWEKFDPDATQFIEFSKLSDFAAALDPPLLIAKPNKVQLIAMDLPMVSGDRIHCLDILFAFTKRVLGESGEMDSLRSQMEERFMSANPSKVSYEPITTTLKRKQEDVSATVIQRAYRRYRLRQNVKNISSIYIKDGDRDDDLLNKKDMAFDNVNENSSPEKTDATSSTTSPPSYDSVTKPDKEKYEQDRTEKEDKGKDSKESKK

Structure (SMILES) | inhibition at 10 µM (human SCN9A (Nav 1.7); [2]) | extension width (g) of reaction thresholds (50% paw withdrawal threshold after minus before administering test compound) [1] | also measured
CC(C)(O)Cn1cnc2ccc(Oc3ccc(C(F)(F)F)cn3)cc21 [Example 28, 2-methyl-1-(6-{[5-(trifluoromethyl)pyridin-2-yl]oxy}-1H-benzimidazol-1-yl)propan-2-ol] | 82% | 6 g | 
CC(C)(O)Cn1cnc2cc(-c3ccc(C(F)(F)F)cc3F)ccc21 [Example 181, 1-{5-[2-fluoro-4-(trifluoromethyl)phenyl]-1H-benzimidazol-1-yl}-2-methylpropan-2-ol] | 45% | 2.5 g | 
CC(C)(O)Cn1cnc2ccc(-c3ccc(C(F)(F)F)cc3F)cc21 [Example 123, 1-{6-[2-fluoro-4-(trifluoromethyl)phenyl]-1H-benzimidazol-1-yl}-2-methylpropan-2-ol] | 64% | 1.3 g | 
CC(C)(O)CCn1cnc2ccc(Oc3ccc(Cl)cc3)cc21 [Example 101, 4-[6-(4-chlorophenoxy)-1H-benzimidazol-1-yl]-2-methylbutan-2-ol] | 43% | 1.4 g | 
CC(C)(O)CCn1cnc2ccc(Oc3ccc(C(F)(F)F)cn3)cc21 [Example 59, 2-methyl-4-(6-{[5-(trifluoromethyl)pyridin-2-yl]oxy}-1H-benzimidazol-1-yl)butan-2-ol] | 49% | 5.1 g | 
CC(C)(O)Cn1cnc2ccc(Oc3ccc(Cl)cc3)cc21 [Example 20, 1-[6-(4-chlorophenoxy)-1H-benzimidazol-1-yl]-2-methylpropan-2-ol] |  | 2.9 g | inhibition at 10 µM (human SCN9A (Nav 1.7)): 91%
CC(C)(O)Cn1cnc2cc(-c3ccc(OC(F)(F)F)cc3)ccc21 [Example 179, 2-methyl-1-{5-[4-(trifluoromethoxy)phenyl]-1H-benzimidazol-1-yl}propan-2-ol] | 61% | 6.5 g | 
OC1(Cn2cnc3ccc(Oc4ccc(OC(F)(F)F)cc4)cc32)COC1 [Example 94, 3-({6-[4-(trifluoromethoxy)phenoxy]-1H-benzimidazol-1-yl}methyl)oxetan-3-ol] | 73% | 4.9 g | 
CC(C)(O)Cn1cnc2ccc(Oc3ccc(F)cc3)cc21 [Example 1, 1-[6-(4-fluorophenoxy)-1H-benzimidazol-1-yl]-2-methylpropan-2-ol] | 83% | 2.8 g | 
COc1cc(C(F)(F)F)ccc1-c1ccc2c(c1)ncn2CC1(O)COC1 [Example 205, 3-({5-[2-methoxy-4-(trifluoromethyl)phenyl]-1H-benzimidazol-1-yl}methyl)oxetan-3-ol] | 46% | 1.6 g | 
COc1cc(C(F)(F)F)ccc1-c1ccc2ncn(CC3(O)COC3)c2c1 [Example 148, 3-({6-[2-methoxy-4-(trifluoromethyl)phenyl]-1H-benzimidazol-1-yl}methyl)oxetan-3-ol] | 59% | 3.7 g | 
O[C@H]1CC[C@@H](n2cnc3ccc(Oc4ccc(C(F)(F)F)cn4)cc32)CC1 [Example 118, cis-4-(6-{[5-(trifluoromethyl)pyridin-2-yl]oxy}-1H-benzimidazol-1-yl)cyclohexanol] | 33% | 3.4 g | 
C[C@H](n1cnc2ccc(Oc3ccc(C(F)(F)F)cn3)cc21)C(C)(C)O [Example 229, (3S)-2-methyl-3-(6-{[5-(trifluoromethyl)pyridin-2-yl]oxy}-1H-benzimidazol-1-yl)butan-2-ol] | 32% | 3.9 g | 
Cc1cc(-c2ccc3ncn(CC4(O)COC4)c3c2)cc(C(F)(F)F)c1 [Example 164] | 63% |  | 
OC1(Cn2cnc3ccc(-c4ccc(Cl)cc4Cl)cc32)COC1 [Example 156] | 54% |  | 
C[C@]1(O)C[C@@H](n2cnc3ccc(Oc4ccc(OC(F)(F)F)cn4)cc32)C1 [Example 121] | 21% |  | 
Cc1cc(Cl)cc(-c2ccc3c(c2)ncn3CC2(O)COC2)c1 [Example 218] | 53% |  | 
OC1(Cn2cnc3ccc(Oc4ccc(C(F)(F)F)nc4)cc32)COC1 [Example 96] |  |  | inhibition at 100 µM (human SCN9A (Nav 1.7); compound concentration 100 μmol/L (footnoted examples), holding potential inactivating 50% Nav 1.7 channel (around −60 mV)): 32%
CC(C)(O)CCn1cnc2ccc(-c3ccc(Cl)cc3)cc21 [Example 171] | 60% |  | 

Structure (SMILES) | inhibition at 10 µM (human SCN9A (Nav 1.7); [2]) | extension width (g) of reaction thresholds (50% paw withdrawal threshold after minus before administering test compound) [1] | also measured
CC(C)(O)Cn1cnc2ccc(Oc3ccc(CC(F)(F)F)cc3)cc21 [Example 104] | 57% |  | 
CC(C)(O)Cn1cnc2ccc(-c3ccc(Cl)cc3Cl)cc21 [Example 132] | 65% |  | 
COc1cccc(-c2ccc3ncn(CC4(O)COC4)c3c2)c1Cl [Example 167] | 71% |  | 
C[C@](O)(CO)Cn1cnc2ccc(Oc3ccc(C(F)(F)F)cn3)cc21 [Example 227, (2R)-2-methyl-3-(6-{[5-(trifluoromethyl)pyridin-2-yl]oxy}-1H-benzimidazol-1-yl)propane-1,2-diol] | 11% |  | 
OC1(Cn2cnc3ccc(-c4ccc(Cl)cc4C(F)(F)F)cc32)COC1 [Example 151] | 44% |  | 
CC(C)(O)Cn1cnc2cc(-c3cnoc3)ccc21 [Example 202] | 21% |  | 
CC(C)(O)Cn1cnc2ccc(Oc3ccc(OC(F)(F)F)cc3)cc21 [Example 22, 2-methyl-1-{6-[4-(trifluoromethoxy)phenoxy]-1H-benzimidazol-1-yl}propan-2-ol] | 73% |  | 
OC1(Cn2cnc3ccc(-c4cc(C(F)(F)F)ccc4F)cc32)COC1 [Example 161] | 49% |  | 
OC1(Cn2cnc3ccc(-c4cc(C(F)(F)F)ccc4Cl)cc32)COC1 [Example 162] | 63% |  | 
OC1(Cn2cnc3ccc(-c4cc(Cl)cc(Cl)c4)cc32)COC1 [Example 158] | 53% |  | 
CC(C)(O)Cn1cnc2cc(-c3ccc(S(C)(=O)=O)cc3C(F)(F)F)ccc21 [Example 193] | 23% |  | 
CC(C)(O)CCn1cnc2ccc(Oc3cccc(F)c3)cc21 [Example 98] | 25% |  | 
CC(C)(O)CCn1cnc2ccc(Oc3ccc(C(F)(F)F)cc3)cc21 [Example 102] | 59% |  | 
OC1(Cn2cnc3cc(-c4ccc(OC(F)(F)F)cc4)ccc32)COC1 [Example 204] | 28% |  | 
OC1(Cn2cnc3ccc(Oc4ccc(Cl)cc4Cl)cc32)COC1 [Example 106] | 50% |  | 
C[C@]1(O)C[C@@H](n2cnc3ccc(Oc4ccc(C(F)(F)F)cc4)cc32)C1 [Example 113] | 68% |  | 
CC(C)(O)Cn1cnc2ccc(-c3cnoc3)cc21 [Example 144] | 19% |  | 
CC(C)(O)Cn1cnc2ccc(Oc3ccc(OC(F)(F)F)cn3)cc21 [Example 120] | 13% |  | 
CC(C)(O)Cn1cnc2cc(-c3ccccc3OC(F)(F)F)ccc21 [Example 197] | 33% |  | 

— patent publication US10407395B2, “Benzimidazole compound and medical use thereof” (Sumitomo Dainippon Pharma Co., Ltd., priority 2015, dated 2019)
